Assay results published in paper PMC5002989 (Bioorganic & medicinal chemistry letters, 2016).
Read-outs that look alike come from different tables or passages of the source.

Legend:
[1] = Experimental water solubility, thermodynamic solubility method; format: physicochemical; conditions: for solubility: water, Experimentally determined water solubility of the hydrochloride salt
[2] = target: VMAT2 (Rattus norvegicus, UniProt Q01827); assay: [3H]DA uptake at VMAT2 in rat striatal vesicle preparations; format: biochemical
VMAT2, sequence (Q01827 whole entry): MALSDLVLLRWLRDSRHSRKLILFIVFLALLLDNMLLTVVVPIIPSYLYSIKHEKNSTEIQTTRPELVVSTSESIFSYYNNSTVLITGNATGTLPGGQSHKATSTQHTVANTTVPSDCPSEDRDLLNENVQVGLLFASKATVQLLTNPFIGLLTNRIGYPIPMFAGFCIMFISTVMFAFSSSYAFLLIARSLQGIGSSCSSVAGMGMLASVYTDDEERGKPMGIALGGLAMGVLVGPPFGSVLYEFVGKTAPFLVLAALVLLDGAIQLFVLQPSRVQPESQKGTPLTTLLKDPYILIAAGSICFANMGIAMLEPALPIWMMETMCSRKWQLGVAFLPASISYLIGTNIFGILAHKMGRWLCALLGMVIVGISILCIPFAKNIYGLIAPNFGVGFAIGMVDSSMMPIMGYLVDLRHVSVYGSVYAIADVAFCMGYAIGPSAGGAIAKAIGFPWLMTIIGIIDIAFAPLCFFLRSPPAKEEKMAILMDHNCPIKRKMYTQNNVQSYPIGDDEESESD

[3] = target: hERG channel (Homo sapiens, UniProt Q12809); assay: biochemical
hERG channel, sequence (Q12809 whole entry): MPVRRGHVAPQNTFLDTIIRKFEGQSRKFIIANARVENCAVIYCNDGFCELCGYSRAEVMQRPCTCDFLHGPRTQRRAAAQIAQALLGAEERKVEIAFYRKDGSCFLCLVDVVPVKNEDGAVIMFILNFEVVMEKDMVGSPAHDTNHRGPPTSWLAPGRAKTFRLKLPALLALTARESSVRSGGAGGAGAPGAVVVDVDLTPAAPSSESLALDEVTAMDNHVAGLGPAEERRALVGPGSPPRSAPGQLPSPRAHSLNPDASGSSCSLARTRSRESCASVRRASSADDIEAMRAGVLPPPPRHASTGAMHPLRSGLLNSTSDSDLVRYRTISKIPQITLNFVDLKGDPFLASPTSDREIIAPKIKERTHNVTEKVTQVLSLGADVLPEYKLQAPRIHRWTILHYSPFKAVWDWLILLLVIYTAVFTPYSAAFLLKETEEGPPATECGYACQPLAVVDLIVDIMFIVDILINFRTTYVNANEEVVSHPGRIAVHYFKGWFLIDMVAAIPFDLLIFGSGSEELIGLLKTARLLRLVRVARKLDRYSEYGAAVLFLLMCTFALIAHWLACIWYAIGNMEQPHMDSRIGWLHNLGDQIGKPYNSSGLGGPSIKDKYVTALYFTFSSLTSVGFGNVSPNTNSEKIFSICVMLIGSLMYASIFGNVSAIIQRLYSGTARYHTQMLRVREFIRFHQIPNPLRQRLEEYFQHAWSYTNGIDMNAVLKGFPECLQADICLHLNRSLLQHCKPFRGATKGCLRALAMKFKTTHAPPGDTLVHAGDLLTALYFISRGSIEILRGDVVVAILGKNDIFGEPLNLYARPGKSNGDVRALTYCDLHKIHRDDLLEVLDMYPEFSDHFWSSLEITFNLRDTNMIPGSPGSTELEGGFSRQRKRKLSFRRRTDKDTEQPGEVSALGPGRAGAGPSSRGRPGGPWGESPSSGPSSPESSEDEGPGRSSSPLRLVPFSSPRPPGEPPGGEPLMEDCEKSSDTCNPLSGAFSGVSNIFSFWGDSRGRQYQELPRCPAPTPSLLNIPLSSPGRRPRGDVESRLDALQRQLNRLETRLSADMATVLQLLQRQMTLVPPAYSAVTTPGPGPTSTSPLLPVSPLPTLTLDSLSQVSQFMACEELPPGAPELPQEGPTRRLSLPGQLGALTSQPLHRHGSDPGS

SMILES: COc1ccccc1CCN1CCN(CCc2ccccc2OC)CC1.Cl.Cl [Compound 6b]
- Experimentally determined water solubility of the hydrochloride salt ([1]; listed as C00014): 25.0 mg/mL
- solubility [1]: 33.3 mg/mL

SMILES: Cl.Cl.Clc1ccccc1CCN1CCN(CCc2ccccc2Cl)CC1 [Compound 6e]
- Experimentally determined water solubility of the hydrochloride salt ([1]; listed as C00020): 13.5 mg/mL
- solubility [1]: 25 mg/mL

SMILES: Cl.Cl.Fc1ccc(CCN2CCN(CCc3ccc(F)cc3)CC2)cc1 [Compound 6f]
- [3H]DA uptake Ki in comparison to lobelane [2]: not different from lobelane

SMILES: COc1ccccc1CCN1CCN(CCc2ccccc2)CC1.Cl.Cl [Compound 9a]
- Experimentally determined water solubility of the hydrochloride salt [1]: 13.5 mg/mL
- Experimentally determined water solubility of the hydrochloride salt ([1]; listed as C00004): 33.3 mg/mL

SMILES: CN1[C@@H](CCc2ccccc2)CCC[C@H]1CCc1ccccc1 [Lobelane (2), lobelane]
- Ki [3]: 238 ± 38.9 nM
